Reference: PubChem BioAssay AID1259407 (Chemical Carcinogenesis Research Information System (CCRIS), 2018)
The source made the active and inactive calls. How the calls were made is not given here.

Tested on: CCRIS mutagenicity, Ames/micronucleus/aberration tests
Experiment: CCRIS mutagenicity studies
[1] = Test System: AMES SALMONELLA TYPHIMURIUM, Strain/Indicator: TA98, Metabolic Activation: NONE, Method: PREINCUBATION
[2] = Test System: AMES SALMONELLA TYPHIMURIUM, Strain/Indicator: TA100, Metabolic Activation: NONE, Method: PREINCUBATION
[3] = Test System: AMES SALMONELLA TYPHIMURIUM, Strain/Indicator: TA100, Metabolic Activation: NONE, Method: STANDARD PLATE
[4] = Test System: AMES SALMONELLA TYPHIMURIUM, Strain/Indicator: TA98, Metabolic Activation: NONE, Method: STANDARD PLATE
[5] = Test System: AMES SALMONELLA TYPHIMURIUM, Strain/Indicator: TA98, Metabolic Activation: S-9, Method: STANDARD PLATE
[6] = Test System: AMES SALMONELLA TYPHIMURIUM, Strain/Indicator: TA100, Metabolic Activation: S-9, Method: STANDARD PLATE
[7] = Test System: AMES SALMONELLA TYPHIMURIUM, Strain/Indicator: TA102, Metabolic Activation: NONE, Method: STANDARD PLATE
[8] = Test System: AMES SALMONELLA TYPHIMURIUM, Strain/Indicator: TA102, Metabolic Activation: NONE, Method: PREINCUBATION
[9] = Test System: AMES SALMONELLA TYPHIMURIUM, Strain/Indicator: TA102, Metabolic Activation: RAT, LIVER, S-9, AROCLOR 1254, Method: PREINCUBATION

SMILES: COc1cc(N)ccc1C
- mutagenic call (Test System: AMES SALMONELLA TYPHIMURIUM, Strain/Indicator: TA98, Metabolic Activation: HAMSTER, LIVER, S-9, AROCLOR 1254 (30%), Method: PREINCUBATION): active; positive
- mutagenic call [1]: inactive; negative
- mutagenic call (Test System: AMES SALMONELLA TYPHIMURIUM, Strain/Indicator: TA98, Metabolic Activation: RAT, LIVER, S-9, AROCLOR 1254 (30%), Method: PREINCUBATION): active; positive
- mutagenic call (Test System: AMES SALMONELLA TYPHIMURIUM, Strain/Indicator: TA100, Metabolic Activation: HAMSTER, LIVER, S-9, AROCLOR 1254 (30%), Method: PREINCUBATION): active; positive
- mutagenic call [2]: inactive; negative
- mutagenic call (Test System: AMES SALMONELLA TYPHIMURIUM, Strain/Indicator: TA100, Metabolic Activation: RAT, LIVER, S-9, AROCLOR 1254 (30%), Method: PREINCUBATION): active; positive

SMILES: C1CCC(C(CC2CCCCN2)C2CCCCC2)CC1 (stereo not given)
- mutagenic call (Test System: AMES SALMONELLA TYPHIMURIUM, Strain/Indicator: TA100(FR1), Metabolic Activation: NONE, Method: STANDARD PLATE): inactive; negative
- mutagenic call (Test System: AMES SALMONELLA TYPHIMURIUM, Strain/Indicator: TA100(FR1), Metabolic Activation: RAT, LIVER, S-9, PHENOBARBITAL AND 3-METHYLCHOLANTHRENE, Method: STANDARD PLATE): inactive; negative
- mutagenic call [3]: inactive; negative
- mutagenic call (Test System: AMES SALMONELLA TYPHIMURIUM, Strain/Indicator: TA100, Metabolic Activation: RAT, LIVER, S-9, PHENOBARBITAL AND 3-METHYLCHOLANTHRENE, Method: STANDARD PLATE): inactive; negative
- mutagenic call (Test System: CHINESE HAMSTER V-79, Strain/Indicator: V-79/6-THIOGUANINE, Metabolic Activation: NONE): inactive; negative
- mutagenic call (Test System: CHINESE HAMSTER V-79, Strain/Indicator: V-79/6-THIOGUANINE, Metabolic Activation: RAT, LIVER, HEPATOCYTES): active; positive
- mutagenic call (Test System: CHINESE HAMSTER V-79, Strain/Indicator: V-79/OUABAIN, Metabolic Activation: NONE): inactive; negative
- mutagenic call (Test System: CHINESE HAMSTER V-79, Strain/Indicator: V-79/OUABAIN, Metabolic Activation: RAT, LIVER, HEPATOCYTES): inactive; negative

SMILES: CCc1cc(C(C)(C)C)c(O)c(C(C)(C)C)c1
- mutagenic call (Test System: AMES SALMONELLA TYPHIMURIUM, Strain/Indicator: TA97, Metabolic Activation: NONE, Method: STANDARD PLATE): inactive; negative
- mutagenic call (Test System: AMES SALMONELLA TYPHIMURIUM, Strain/Indicator: TA97, Metabolic Activation: S-9, Method: STANDARD PLATE): inactive; negative
- mutagenic call [4]: inactive; negative
- mutagenic call [5]: inactive; negative
- mutagenic call [3]: inactive; negative
- mutagenic call [6]: inactive; negative
- mutagenic call [7]: inactive; negative
- mutagenic call (Test System: AMES SALMONELLA TYPHIMURIUM, Strain/Indicator: TA102, Metabolic Activation: S-9, Method: STANDARD PLATE): inactive; negative
- mutagenic call (Test System: E.COLI, Strain/Indicator: WP2 (PKM101), Metabolic Activation: NONE, Method: STANDARD PLATE): inactive; negative
- mutagenic call (Test System: E.COLI, Strain/Indicator: WP2 (PKM101), Metabolic Activation: S-9, Method: STANDARD PLATE): inactive; negative

SMILES: CCCCOc1cc(OC)ccc1C(=O)NOC(C)=O
- mutagenic call [3]: active; positive
- mutagenic call (Test System: AMES SALMONELLA TYPHIMURIUM, Strain/Indicator: TA100, Metabolic Activation: RAT, S-9, AROCLOR, Method: STANDARD PLATE): active; positive

SMILES: CNc1ccc(N=Nc2ccc(NC)cc2)cc1
- mutagenic call (Test System: AMES SALMONELLA TYPHIMURIUM, Strain/Indicator: TA98, Metabolic Activation: RAT, LIVER, S-9, POLYCHLORINATED BIPHENYLS, Method: PREINCUBATION): inactive; negative
- mutagenic call (Test System: AMES SALMONELLA TYPHIMURIUM, Strain/Indicator: TA100, Metabolic Activation: RAT, LIVER, S-9, POLYCHLORINATED BIPHENYLS, Method: PREINCUBATION): inactive; negative

SMILES: Cc1ccc(C=O)o1
- mutagenic call [1]: inactive; negative
- mutagenic call [4]: inactive; negative
- mutagenic call (Test System: AMES SALMONELLA TYPHIMURIUM, Strain/Indicator: TA98, Metabolic Activation: RAT, LIVER, S-9, AROCLOR 1254, Method: PREINCUBATION): inactive; negative
- mutagenic call [5]: inactive; negative
- mutagenic call [2]: inactive; negative
- mutagenic call [3]: inactive; negative
- mutagenic call (Test System: AMES SALMONELLA TYPHIMURIUM, Strain/Indicator: TA100, Metabolic Activation: RAT, LIVER, S-9, AROCLOR 1254, Method: PREINCUBATION): inactive; negative
- mutagenic call [6]: inactive; negative
- mutagenic call [8]: inactive; negative
- mutagenic call [9]: inactive; negative

SMILES: O.O.O.[Fe].[Fe]
- mutagenic call (Test System: AMES SALMONELLA TYPHIMURIUM, Strain/Indicator: TA97, Metabolic Activation: NONE, Method: PREINCUBATION): inactive; negative
- mutagenic call (Test System: AMES SALMONELLA TYPHIMURIUM, Strain/Indicator: TA97, Metabolic Activation: RAT, LIVER, S-9, AROCLOR 1254, Method: PREINCUBATION): inactive; negative
- mutagenic call [8]: inactive; negative
- mutagenic call [9]: inactive; negative

SMILES: C=CCOc1ccccc1OCC(O)CNC(C)C (stereo not given)
- mutagenic call (Test System: AMES SALMONELLA TYPHIMURIUM, Strain/Indicator: TA98, Metabolic Activation: NONE): inactive; negative
- mutagenic call [4]: inactive; negative
- mutagenic call (Test System: AMES SALMONELLA TYPHIMURIUM, Strain/Indicator: TA98, Metabolic Activation: RAT, LIVER, S-9, AROCLOR 1254): inactive; negative
- mutagenic call (Test System: AMES SALMONELLA TYPHIMURIUM, Strain/Indicator: TA98, Metabolic Activation: RAT, LIVER, S-9, AROCLOR 1254, Method: STANDARD PLATE): inactive; negative
- mutagenic call (Test System: AMES SALMONELLA TYPHIMURIUM, Strain/Indicator: TA100, Metabolic Activation: NONE): inactive; negative
- mutagenic call [3]: inactive; negative
- mutagenic call (Test System: AMES SALMONELLA TYPHIMURIUM, Strain/Indicator: TA100, Metabolic Activation: RAT, LIVER, S-9, AROCLOR 1254): inactive; negative
- mutagenic call (Test System: AMES SALMONELLA TYPHIMURIUM, Strain/Indicator: TA100, Metabolic Activation: RAT, LIVER, S-9, AROCLOR 1254, Method: STANDARD PLATE): inactive; negative
- mutagenic call (Test System: AMES SALMONELLA TYPHIMURIUM, Strain/Indicator: TA1535, Metabolic Activation: NONE): inactive; negative
- mutagenic call (Test System: AMES SALMONELLA TYPHIMURIUM, Strain/Indicator: TA1535, Metabolic Activation: RAT, LIVER, S-9, AROCLOR 1254): inactive; negative
- mutagenic call (Test System: AMES SALMONELLA TYPHIMURIUM, Strain/Indicator: TA1537, Metabolic Activation: NONE): inactive; negative
- mutagenic call (Test System: AMES SALMONELLA TYPHIMURIUM, Strain/Indicator: TA1537, Metabolic Activation: RAT, LIVER, S-9, AROCLOR 1254): inactive; negative
- mutagenic call (Test System: CHINESE HAMSTER V-79, Strain/Indicator: V-79/6-THIOGUANINE, Metabolic Activation: NONE, Method: REPLATING): inactive; negative
- mutagenic call (Test System: CHINESE HAMSTER V-79, Strain/Indicator: V-79/6-THIOGUANINE, Metabolic Activation: RAT, HEPATOCYTES, Method: REPLATING): inactive; negative
- mutagenic call (Test System: UDS HUMAN HEPATOCYTES, Strain/Indicator: THY INCORP, Metabolic Activation: NONE, Method: AUTORADIOGRAPHY): inactive; negative
- mutagenic call (Test System: UDS RAT HEPATOCYTES, Strain/Indicator: THY INCORP, Metabolic Activation: NONE, Method: AUTORADIOGRAPHY): inactive; negative

SMILES: CC1(C)C=C(C(=O)O)C(C)(C)N1[O]
- mutagenic call [4]: inactive; negative
- mutagenic call [3]: inactive; negative
- mutagenic call (Test System: AMES SALMONELLA TYPHIMURIUM, Strain/Indicator: TA102, Metabolic Activation: NONE, Method: STANDARD): inactive; negative
- mutagenic call [7]: inactive; negative
- mutagenic call (Test System: AMES SALMONELLA TYPHIMURIUM, Strain/Indicator: TA102, Metabolic Activation: XANTHINE OXIDASE, Method: STANDARD PLATE): inactive; negative
- mutagenic call (Test System: AMES SALMONELLA TYPHIMURIUM, Strain/Indicator: TA104, Metabolic Activation: NONE, Method: STANDARD PLATE): inactive; negative
- mutagenic call (Test System: AMES SALMONELLA TYPHIMURIUM, Strain/Indicator: TA104, Metabolic Activation: XANTHINE OXIDASE, Method: STANDARD PLATE): inactive; negative
